Test results taken from PubChem BioAssay AID330 (DTP/NCI, 2004).
Where “and” joins values, the source holds several entries; their conditions need not be identical. Identical values can stand only once. Inconclusive results and toxic doses are left out. How the source made its calls: active means survival T/C of 150% or more; inactive means T/C below 125% in these data. Square brackets hold non-standard residues; d marks the D form. Peptide text beside a SMILES is read from it. ξ: configuration not given here. ξT = CC(O)C(N)C(=O)O

System: P388 leukemia ip, CD2F1 mice, survival T/C
Test: NCI In Vivo Anticancer Drug Screen. Data for tumor model P388 Leukemia (intraperitoneal) in CD2F1 (CDF1) mice
Conditions: endpoint: median survival time, higher = longer survival
Outline: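 Mice carrying the transplanted tumor received test compound or vehicle. Survival was recorded in each group, and the value is the treated-group measurement divided by that of the vehicle-treated control group.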

[1] = dose: 100.0 mg/kg/injection, schedule: Q04DX003 (ip), vehicle: saline with Tween-80
[2] = dose: 200.0 mg/kg/injection, schedule: Q04DX003 (ip), vehicle: saline with Tween-80
[3] = dose: 400.0 mg/kg/injection, schedule: Q04DX003 (ip), vehicle: saline with Tween-80
[4] = dose: 100.0 mg/kg/injection, schedule: Q01DX001 (ip), vehicle: saline with Tween-80
[5] = dose: 200.0 mg/kg/injection, schedule: Q01DX001 (ip), vehicle: saline with Tween-80
[6] = dose: 50.0 mg/kg/injection, schedule: Q01DX009 (ip), vehicle: saline
[7] = dose: 100.0 mg/kg/injection, schedule: Q01DX009 (ip), vehicle: saline
[8] = dose: 200.0 mg/kg/injection, schedule: Q01DX009 (ip), vehicle: saline
[9] = dose: 50.0 mg/kg/injection, schedule: Q01DX005 (ip), vehicle: Klucel (hydroxypropylcellulose) (HPC)
[10] = dose: 100.0 mg/kg/injection, schedule: Q01DX005 (ip), vehicle: Klucel (hydroxypropylcellulose) (HPC)
[11] = dose: 200.0 mg/kg/injection, schedule: Q01DX005 (ip), vehicle: Klucel (hydroxypropylcellulose) (HPC)
[12] = dose: 100.0 mg/kg/injection, schedule: Q01DX009 (ip), vehicle: saline with Tween-80
[13] = dose: 200.0 mg/kg/injection, schedule: Q01DX009 (ip), vehicle: saline with Tween-80
[14] = dose: 50.0 mg/kg/injection, schedule: Q01DX009 (ip), vehicle: Klucel (hydroxypropylcellulose) (HPC)
[15] = dose: 100.0 mg/kg/injection, schedule: Q01DX009 (ip), vehicle: Klucel (hydroxypropylcellulose) (HPC)
[16] = dose: 200.0 mg/kg/injection, schedule: Q01DX009 (ip), vehicle: Klucel (hydroxypropylcellulose) (HPC)
[17] = dose: 60.0 mg/kg/injection, schedule: Q01DX005 (ip), vehicle: saline with Tween-80
[18] = dose: 120.0 mg/kg/injection, schedule: Q01DX005 (ip), vehicle: saline with Tween-80
[19] = dose: 240.0 mg/kg/injection, schedule: Q01DX005 (ip), vehicle: saline with Tween-80

Measured: T/C

O=[N+]([O-])c1ccc(N=Nc2ccc(N(CCO)CCO)cc2)cc1
inactive: dose: 60.0 mg/kg/injection, schedule: Q01DX005 (ip), vehicle: suspension in saline 95 % of control | dose: 120.0 mg/kg/injection, schedule: Q01DX005 (ip), vehicle: suspension in saline 97 % of control | dose: 240.0 mg/kg/injection, schedule: Q01DX005 (ip), vehicle: suspension in saline 98 % of control

Cc1cnc(NCCCCCCNc2ncc(C)c(-c3ccccc3O)n2)nc1-c1ccccc1O
inactive: [1] 91 % of control | [2] 97 % of control | [3] 91 % of control

CCOC(=O)c1c[nH]c2c(=O)c3cc(C)ccc3sc2c1=O
inactive: dose: 50.0 mg/kg/injection, schedule: Q01DX001 (ip), vehicle: saline with Tween-80 95 % of control | [4] 93 % of control | [5] 87 % of control

CCC/C(=N\NC(N)=NC)c1ccc(Cl)cc1
inactive: dose: 25.0 mg/kg/injection, schedule: Q04DX002 (ip), vehicle: saline 102 % of control | dose: 50.0 mg/kg/injection, schedule: Q04DX002 (ip), vehicle: saline 93 % of control

C=CCCC(OC(C)C)OC(C)C
inactive: [6] 98 % of control | [7] 99 % of control | [8] 108 % of control

NC(=S)N/N=C\c1nccc2c(C(F)(F)F)cccc12
inactive: dose: 1.5 mg/kg/injection, schedule: Q04DX003 (ip), vehicle: saline with Tween-80 91 % of control | dose: 3.0 mg/kg/injection, schedule: Q04DX003 (ip), vehicle: saline with Tween-80 95 % of control | dose: 6.0 mg/kg/injection, schedule: Q04DX003 (ip), vehicle: saline with Tween-80 99 % of control | dose: 12.0 mg/kg/injection, schedule: Q04DX003 (ip), vehicle: saline with Tween-80 91 % of control

OC1CN(CCCCCCN2CC(O)ON2)NO1 (centres undefined)
inactive: [6] 93 % of control | [7] 93 % of control | [8] 97 % of control

O=C1NCC2CCCCC12 (centres undefined)
inactive: [9] 107 % of control | [10] 99 % of control | [11] 100 % of control

C/C1=C\CC/C(C)=C/CC/C(C)=C/CC(C)(C)/C=C/C1
inactive: dose: 25.0 mg/kg/injection, schedule: Q01DX009 (ip), vehicle: saline + Tween-80 + alcohol 112 % of control | dose: 50.0 mg/kg/injection, schedule: Q01DX009 (ip), vehicle: saline + Tween-80 + alcohol 112 % of control | dose: 100.0 mg/kg/injection, schedule: Q01DX009 (ip), vehicle: saline + Tween-80 + alcohol 111 % of control

CC(O)C(N)C(=O)NCC(=O)NCC(=O)O (stereo not drawn) (H-[ξT]-Gly-Gly-OH)
inactive: dose: 50.0 mg/kg/injection, schedule: Q01DX005 (ip), vehicle: saline 101 % of control | dose: 100.0 mg/kg/injection, schedule: Q01DX005 (ip), vehicle: saline 101 % of control | dose: 200.0 mg/kg/injection, schedule: Q01DX005 (ip), vehicle: saline 104 % of control

CCOC(=O)CCCCCNC(=S)N1c2c(nc(N)[nH]c2=O)NCC1CNc1ccc(C(=O)NC(CCC(=O)O)C(=O)O)cc1 (centres undefined)
inactive: dose: 100.0 mg/kg/injection, schedule: Q01DX001 (ip), vehicle: sodium bicarbonate 89 % of control | dose: 200.0 mg/kg/injection, schedule: Q01DX001 (ip), vehicle: sodium bicarbonate 90 % of control | dose: 400.0 mg/kg/injection, schedule: Q01DX001 (ip), vehicle: sodium bicarbonate 92 % of control

COC(=O)C1=C/CCCN(CCC2OCC(CBr)O2)/C=C\1C(=O)OC (centres undefined)
inactive: [4] 99 % of control | [5] 102 % of control | dose: 400.0 mg/kg/injection, schedule: Q01DX001 (ip), vehicle: saline with Tween-80 98 % of control

Cc1cc2c3ccccc3[nH]c(=O)n2n1
inactive: dose: 50.0 mg/kg/injection, schedule: Q04DX003 (ip), vehicle: saline 101 % of control | [12] 100 % of control | [1] 110 % of control | dose: 100.0 mg/kg/injection, schedule: Q04DX003 (ip), vehicle: saline 101 % of control | [13] 110 % of control | [2] 120 % of control | dose: 200.0 mg/kg/injection, schedule: Q04DX003 (ip), vehicle: saline 105 % of control | [3] 100 % of control | dose: 400.0 mg/kg/injection, schedule: Q04DX003 (ip), vehicle: saline 98 % of control

c1ccc(C(=C2CCCCC2)c2ccccc2)cc1
inactive: dose: 50.0 mg/kg/injection, schedule: Q01DX005 (ip), vehicle: saline with Tween-80 100 % of control | dose: 100.0 mg/kg/injection, schedule: Q01DX005 (ip), vehicle: saline with Tween-80 100 % of control | dose: 200.0 mg/kg/injection, schedule: Q01DX005 (ip), vehicle: saline with Tween-80 98 % of control

Cc1cc(=O)[nH]c2cc(O)c(C(=O)O)cc12
inactive: [9] 93 % of control | [10] 93 % of control | [11] 88 % of control

Cn1c(Cl)c(/C=C(/NC(=O)c2ccccc2)C(=O)O)c2ccccc21
inactive: dose: 100.0 mg/kg/injection, schedule: Q01DX001 (ip), vehicle: Klucel (hydroxypropylcellulose) (HPC) 102 % of control | dose: 200.0 mg/kg/injection, schedule: Q01DX001 (ip), vehicle: Klucel (hydroxypropylcellulose) (HPC) 93 % of control | dose: 400.0 mg/kg/injection, schedule: Q01DX001 (ip), vehicle: Klucel (hydroxypropylcellulose) (HPC) 93 % of control

O=C(CCSCCC(=O)N/N=C(\CO)C(O)C(O)C(O)CO)N/N=C(/CO)C(O)C(O)C(O)CO (centres undefined)
inactive: dose: 50.0 mg/kg/injection, schedule: Q01DX005 (ip), vehicle: suspension in saline 99 % of control | dose: 100.0 mg/kg/injection, schedule: Q01DX005 (ip), vehicle: suspension in saline 104 % of control | dose: 200.0 mg/kg/injection, schedule: Q01DX005 (ip), vehicle: suspension in saline 97 % of control

Cn1c2cc(Cl)c(Cl)cc2nc2cc3c(cc21)c(Cl)c(=O)c1ccccc13
inactive: dose: 50.0 mg/kg/injection, schedule: Q01DX009 (ip), vehicle: saline with Tween-80 104 % of control | [12] 100 % of control | [13] 98 % of control

COc1cccc(OC)c1OCCN1C(=O)c2ccccc2C1=O
inactive: [14] 100 % of control | [15] 100 % of control | [16] 105 % of control

CC1OC(OCC2OC(Oc3c(-c4ccc(O)cc4)oc4cc(OC5OC(C)C(O)C(O)C5O)cc(O)c4c3=O)C(O)C(O)C2O)C(O)C(O)C1O (centres undefined)
inactive: [12] 95 % of control | dose: 100.0 mg/kg/injection, schedule: Q04DX003 (ip), vehicle: saline sonified 90 % of control | [13] 95 % of control | dose: 200.0 mg/kg/injection, schedule: Q04DX003 (ip), vehicle: saline sonified 90 % of control | dose: 400.0 mg/kg/injection, schedule: Q01DX009 (ip), vehicle: saline with Tween-80 95 % of control | dose: 400.0 mg/kg/injection, schedule: Q04DX003 (ip), vehicle: saline sonified 90 % of control

C[N+]1=C2CCCCCC2=C(N)CC1
inactive: dose: 3.13 mg/kg/injection, schedule: Q04DX003 (ip), vehicle: saline 100 % of control | dose: 6.25 mg/kg/injection, schedule: Q04DX003 (ip), vehicle: saline 104 % of control | dose: 12.5 mg/kg/injection, schedule: Q04DX003 (ip), vehicle: saline 100 % of control

CCOC(=O)c1c(Cl)c(CC)c(Cl)n2c1nc1ccccc12
inactive: [17] 97 % of control | [18] 93 % of control | [19] 101 % of control

CC(=O)C1SCC[S+]1C (centres undefined)
inactive: dose: 15.0 mg/kg/injection, schedule: Q01DX005 (ip), vehicle: saline 102 % of control | dose: 30.0 mg/kg/injection, schedule: Q01DX005 (ip), vehicle: saline 102 % of control | dose: 60.0 mg/kg/injection, schedule: Q01DX005 (ip), vehicle: saline 99 % of control and 106 % of control and 114 % of control

CC(=O)Nc1ccc(S(=O)(=O)N/N=C/c2cc([N+](=O)[O-])cc(I)c2O)cc1
inactive: [17] 93 % of control | [18] 97 % of control | [19] 103 % of control

CCCCCCCCCCCCCCCCOc1ccc(S(=O)(=O)Nc2ccc(N)cc2O)cc1
inactive: [14] 110 % of control | [15] 94 % of control | [16] 112 % of control
